Experimental findings from patent EP0048186B1, “Cyclopropane-carboxylic-acid derivatives, their preparation, their use in combating vegetal parasites, animals and locations, their compositions, and intermediates” (ROUSSEL-UCLAF, priority 1980, dated 1982) are described below.

Common to all, as to type: in vivo
Assay [1] deals with larves de Spodoptera littoralis. Description: Effect on Spodoptera littoralis larvae, topical application. Particulars: for activité (conclusion): conclusion in words on the Spodoptera littoralis test; for DL 50 (ng par individu): fourth-instar larvae, topical acetone solution on dorsal thorax, mortality 48 h after treatment. Here is the method: 2°): Etude de l'effet sur larves de Spodoptera littoralis.
Les essais sont effectués par application topique d'une solution acétonique du produit à tester à l'aide du micro manipulateur d'Arnold sur le thorax dorsal des larves. On utilise 15 larves par dose de produit à tester. Les larves utilisées sont des larves du quatrième stade larvaire, c'est-à-dire âgées d'environ 10 jours lorsqu'elles sont élevées à 24°C et 65% d'humidité relative. Après traitement, les individus sont placés sur un milieu nutritif artificiel (milieu de Poitout).
On effectue le contrôle des mortalités 48 heures après traitement.

The test system of another assay is mouche domestique. Description: Knock-down activity on house fly, direct spray in Kearns and March chamber. Particulars: for KT 50 en mn: direct spray, acetone/isopar L; for activité (conclusion): conclusion in words on the knock-down test. Here is the method: 3°): Etude de l'activité de choc sur mouche domestique.
Les insectes tests sont des mouches domestiques femelles âgées de 4/5 jours. On opère par pulvérisation directe en chambre de Kearns et March en utilisant comme solvant un mélange en volumes égaux d'acétone et d'isopar L (quantité de solution utilisée 2 x 0,2 cm3). On utilise environ 50 insectes par dose de traitement. On effectue les contrôles toutes les minutes jusqu'à 10 minutes, puis à 15 minutes et l'on détermine le KT 50 par les méthodes habituelles.

The test system of the next assay is mouches domestiques. Kind of assay: Lethal effect on house flies, topical application. Particulars: for activité (conclusion): conclusion in words on the lethal test on house flies; for DL 50 (ng par individu): female house flies 4/5 days old, topical 1 µl acetone solution on dorsal thorax, mortality 24 h after treatment. On the procedure:
1°); Etude de l'effet létal sur mouches domestiques.
Les insectes tests sont des mouches domestiques femelles âgées de 4/5 jours. On opère par application topique de 1 ul de solution acétonique du produit sur le thorax dorsal des insectes à l'aide du micro manipulateur d'Arnold. On utilise 50 individus par dose et par traitement. On effectue le contrôle de mortalité vingt-quatre heures après traitement.
Le résultat obtenu exprimé en DL 50 ou dose (en nanogrammes) nécessaire pour tuer 50% des insectes, est le suivant: […]

Assay [2] relates to blatte germanique (Blatella germanica). Description: Tarsal contact activity on German cockroach. Here is the method:
4°): Etude de l'activité par contact tarsal sur blatte germanique. (composé de l'exemple 1J
Les insectes testés sont des mâles de blatte germanique (Blatella germanica). On opère par dépôt d'une solution acétonique de concentration déterminée sur le fond d'une boîte de Petri de 20 cm de diamètre. Après séchage on laisse séjourner 20 mâles de blattes par concentration durant 1 heure puis on transfère les insectes sur milieu sain et on contrôle leur mortalité à 24 h, 48 h, 3 et 5 jours.

For a further assay, the system named is Tétranychus urticae. Kind of assay: Adulticide test on Tetranychus urticae on bean plants. Particulars: dose 2,8 mg/I, sprayed bean plants, checks after 1, 24, 48 and 72 h of contact. Here is the method: 5°): Activité sur Tétranychus urticae. (composé de l'exemple 1)
On utilise des plants de haricot comportant deux feuilles cotylédonaires. Ces plants sont traités au pistolet Fisher avec une solution acétonique du produit. Après séchage 25 femelles de l'acarien Tétranychus urticae sont disposées par feuilles soit 50 individus par dose expérimentée par plant. Les contrôles d'efficacité sont effectués après 1, 24, 48 et 72 heures de contact.

As for `CC1(C)[C@H](C(=O)O[C@H](C#N)c2cccc(Oc3ccccc3)c2)[C@@H]1/C=C\C(=O)OCCF` [Exemple 35, (1R cis) 2,2-diméthyl-3-/(Z)-3-oxo 3-(2-fluoroéthoxy) 1-propényl/ cyclopropane carboxylatede (S) a-cyano 3-phénoxy benzyle], the “activité (conclusion)” value (in assay [1]; in the assay with mouche domestique) was “bonne activité” each time. Further, in assay [1], the “DL 50 (ng par individu)” value is recorded as 0,544 ng par individu. In the assay with mouche domestique (Concentration 1 g/l), the “KT 50 en mn” value was 2,894 mn.
Take `CC1(C)[C@H](C(=O)OC(C#N)c2cccc(Oc3ccccc3)n2)[C@@H]1/C=C\C(=O)OCC(F)(F)F` (stereo partly drawn) [Exemple 30, (1R cis) 2,2-diméthyl-3-/(Z)-3-oxo 3-(2,2,2-trifluoro éthoxy) 1-propényl/ cyclopropane carboxylatede (RS) a-cyano 6-phénoxy 2-pyridyl méthyle]: in the assay on mouche domestique (Concentration 1 g/l), the “KT 50 en mn” value is listed as 3,498 mn. The “activité (conclusion)” value with mouche domestique is reported as “bonne activité”.
As to `C#C[C@@H](OC(=O)[C@@H]1[C@H](/C=C\C(=O)OCC(F)(F)F)C1(C)C)c1cccc(Oc2ccccc2)c1` [Exemple 29, (1R cis) 2,2-diméthyl-3-/(Z)-3-oxo 3-(2,2,2-trifluoro éthoxy) 1-propényl/ cyclopropane carboxylatede (R) a-éthynyl 3-phénoxy benzyle], in the assay with mouches domestiques, the “activité (conclusion)” value is listed as “activité remarquable” and the “DL 50 (ng par individu)” value is recorded as 0,825 ng par individu.
The matching figures for `CC1(C)[C@H](C(=O)O[C@H](C#N)c2cccc(Oc3ccccc3)c2)[C@@H]1/C=C\C(=O)OC(C(F)(F)F)C(F)(F)F` [Exemple 23, (1R cis) 2,2-diméthyl-3-/(Z)-3-oxo 3-(2-(1,1,1,3,3,3-hexafluoro)propoxy) 1-propényl/ cyclopropane carboxylatede (S) a-cyano 3-phénoxy benzyle]: “activité remarquable” and 0,962 ng par individu.
Regarding `C=CCC1=C(C)[C@@H](OC(=O)[C@@H]2[C@H](/C=C\C(=O)OCC(F)(F)F)C2(C)C)CC1=O` [Exemple 2, (1R cis) 2,2-diméthyl-3-/(Z)-3-oxo-3-(2,2,2-trifluoroéthoxy) 1-propényll cyclopropane carboxylatede (1S) 2-diméthyl-4-oxo-3-(2-propényl) 2-cyclopenten-1-yle], the “KT 50 en mn” value with mouche domestique (Concentration 0,25 g/l) is listed as 3,608 mn. Further, the “activité (conclusion)” value with mouche domestique was “bonne activité”.
The matching figures for `C#CCN1CC(=O)N(COC(=O)[C@@H]2[C@H](/C=C\C(=O)OCC(F)(F)F)C2(C)C)C1=O` [Exemple 26, (1R cis) 2,2-diméthyl-3-/(Z)-3-oxo 3-(2,2,2-trifluoro éthoxy) 1-propényl/ cyclopropane carboxylatede (3-propargyl 2,5-dioxoimidazolidinyl) méthyle]: 1,550 mn and “bonne activité”.
For `CC1(C)[C@H](C(=O)O[C@H](C#N)c2cccc(Oc3ccccc3)c2)[C@@H]1/C=C\C(=O)OCC(F)(F)F` [Exemple 1, (1 R cis) 2,2-diméthyl 3/(Z) 3-(2,2,2-trifluoroéthoxy) 3-oxo 1-propényl/ cyclopropane carboxylatede (S) a-cyano 3-phénoxy benzyle], the “activité (conclusion)” value in the assay on mouches domestiques is recorded as “activité remarquable”; in assay [1], “bonne activité”; in the assay with mouche domestique it was “bonne activité”; in assay [2] (conclusion in words on the tarsal contact test), “très bonne activité”. Besides, the “DL 50 (ng par individu)” value in the assay with mouches domestiques is recorded as 1,115 ng par individu; in assay [1] it was 4,699 ng par individu. Moreover, the “KT 50 en mn” value in the assay on mouche domestique (Concentration 1 g/l) was 3,534 mn. The “concentration létale 50 (CL 50)” value in assay [2] (male cockroaches, 1 h contact with dried deposit in Petri dish, mortality checked at 24 h, 48 h, 3 and 5 days) is given as 0,216 mg/m2. The “activité (essai adulticide)” value in the assay with Tétranychus urticae was “très bonne activité”.
